From patent publication US12173039B1, “TPL2 inhibiting agents, uses thereof, and detection of TPL2” (Washington University, priority 2021, dated 2024)

Columns and labels:
[1] = tested on: serum-response element (SRE); assay: Serum-response element (SRE) luciferase reporter assay; assay type: cell-based, human; details: HPAC cells
Method: (§1) Cells stably expressing plasmid encoding serum-response-element (SRE) or NFKB promoter driven Firefly luciferase and constitutive Renilla luciferase were seeded at equal density per well and treatment was initiated the next day for 16-24 duration. Alternatively, 293T reporter cells were transfected in duplicate or triplicate with 1 μg of appropriate plasmid DNA. Medium was replaced 16-18 hours later and at 48 hours post-transfection reporter activity was measured using Dual-Glo® Luciferase Assay System. Data was acquired using SpectraMax i3Microplate Reader and analysis was performed by calculating ratio of firefly:renilla. Values were normalized to control and graphed using GraphPad Prism v7/8 software.

p-TPL2 = assay: Immunoblot of activated ectopic TPL2 (anti-p-TPL2 antibody); assay type: cell-based, human; details: Pa01C and HPAC cells overexpressing TPL2
Method: Standard immunoblotting procedure was followed. Cells were washed twice with ice-cold 1×PBS and lysed with ice-cold triton-X lysis buffer (25 mM Tris, pH 7.4, 150 mM NaCl, 5 mM EDTA, 1% Triton-X) containing 1× protease (10 μg mL-1 leupeptin, 700 ng mL-1 pepstatin, 170 ng mL-1 aprotinin, 1 mM PMSF) and phosphatase (10 mM NaF, 1 mM Na3VO4, 1 mM Na4P2O^7, 5 mM Na b-glycerophosphate) inhibitors. Lysates were quantified by Bradford assay (Thermo Scientific), normalized for concentration, and reduced and denatured with 6×SDS sample buffer followed by boiling for 5 minutes. 20-40 μg of protein per sample was resolved by SDS-PAGE, blotted on PVDF membrane and probed with primary antibodies (Cell Signaling Technologies: p-ERK1/2 (#4370), p-MEK1/2 (#9154), ERK1/2 (#4695), MEK1/2 (#8727), p-p105 (#4806), NFS2KB1 p105/p50 (#3035), p-IRAK4 (#11927), IRAK4 (#4363), ubiquitin (#43124), anti-HA (#3724), p-p90RSK (#11989), RSK1/2/3 (#9355), p-TPL2 (#4491), PARP (#9532), p-B-RAF S445 (#2696), BRAF (#9433S). Santa Cruz Biotechnology: GAPDH (#sc-32233), p-p65 […] (#sc101752). Thermo Fisher Scientific: p-55 TPL2 (#PA5-36635). EMD Millipore: IRAK4 (#07-418). R&D systems: TPL2/MAP3K8 (#MAB4586). Novus Biologicals: anti-AU1 (#NB600-453). Abcam: p-p65 […] (#ab194726)). […]

NF-κB reporter activity = assay: NF-κB luciferase reporter assay; assay type: cell-based, human; details: KRAS-mutant PDAC cells (PANC-1); serial dilutions from 20 μM; 18 hours
Method: as §1

HEK T/tH-KRAS^G12V cells = assay: Drug response and viability assay, HEK T/tH-KRAS^G12V with or without MEK1-5DD; assay type: cell-based, human; details: 96 hours, GI50
Method: Cells were seeded at 1500-2500 cells per well in triplicates, in 96 well format. Next day, appropriate inhibitor was added in serial dilution from 1.00×102 μM or indicated single doses. Vehicle (DMSO) was added to match volume of inhibitor used for highest concentration. After 96-120 hours, 5× AlamarBlue® reagent (resazurin sodium salt, Sigma) was added to wells and incubated for 2-4 hours. Fluorescence at 585 nm (excitation 555 nm) was measured by SpectraMax i3 Microplate Reader. Raw values were normalized to vehicle, analyzed and graphed using GraphPad Prism v7/8 software.

p-p105, p-p65 = assay: Immunoblots of NF-κB markers in PDAC cells; assay type: cell-based, human; details: Pa01C, Pa02C, Pa03C, and HPAC cells; IRAK4 inhibition
Method: Standard immunoblotting procedure was followed. Cells were washed twice with ice-cold 1×PBS and lysed with ice-cold triton-X lysis buffer (25 mM Tris, pH 7.4, 150 mM NaCl, 5 mM EDTA, 1% Triton-X) containing 1× protease (10 μg mL-1 leupeptin, 700 ng mL-1 pepstatin, 170 ng mL-1 aprotinin, 1 mM PMSF) and phosphatase (10 mM NaF, 1 mM Na3VO4, 1 mM Na4P2O^7, 5 mM Na b-glycerophosphate) inhibitors. Lysates were quantified by Bradford assay (Thermo Scientific), normalized for concentration, and reduced and denatured with 6×SDS sample buffer followed by boiling for 5 minutes. 20-40 μg of protein per sample was resolved by SDS-PAGE, blotted on PVDF membrane and probed with primary antibodies (Cell Signaling Technologies: p-ERK1/2 (#4370), p-MEK1/2 (#9154), ERK1/2 (#4695), MEK1/2 (#8727), p-p105 (#4806), NFS2KB1 p105/p50 (#3035), p-IRAK4 (#11927), IRAK4 (#4363), ubiquitin (#43124), anti-HA (#3724), p-p90RSK (#11989), RSK1/2/3 (#9355), p-TPL2 (#4491), PARP (#9532), p-B-RAF S445 (#2696), BRAF (#9433S). Santa Cruz Biotechnology: GAPDH (#sc-32233), p-p65 S536 (#sc101752). Thermo Fisher Scientific: p-55 TPL2 (#PA5-36635). EMD Millipore: IRAK4 (#07-418). R&D systems: TPL2/MAP3K8 (#MAB4586). Novus Biologicals: anti-AU1 (#NB600-453). Abcam: p-p65 S276 (#ab194726)). Membranes were incubated with appropriate HRP-conjugated secondary antibodies (anti-mouse or anti-rabbit, (1:5000 dilution), Jackson Laboratory) and imaged using chemiluminescent substrate. Additional steps for immunoprecipitation include incubation of soluble fraction lysate with anti-HA magnetic beads (Thermo Scientific cat #88837) overnight at 4° C., washing, and elution using 1×SDS sample buffer and boiling as mentioned in manufacturer's protocol.

KP2 cells = assay: Anchorage independent soft agar growth assay, KP2 cells; assay type: cell-based, murine
Method: Cells were seeded at 5000-15000 cells in 0.3% noble agar-DMEM suspension per well, in triplicate, in 24 well plate. For drug treatment, compound was added to cell suspension at 1× concentration. Seeded cells were fed with fresh 0.6% agar-DMEM mix once every 7-12 days. […] After 3-6 weeks, colonies were counted under microscope and imaged. Colony count was normalized to control and graphed in GraphPad Prism v7/8.

SRE-driven luciferase reporter activity [1]: dose-dependently reduced | NF-κB reporter activity (NF-κB reporter activity): dose-dependently suppressed
SMILES: CC[C@@H]1[C@H](F)C(=O)N[C@@H]1COc1nccc2cc(C(N)=O)c(OC)cc12 [PF06650833, 1-(((2S,3S,4S)-3-ethyl-4-fluoro-5-oxopyrrolidin-2-yl)methoxy)-7-methoxyisoquinoline-6-carboxamide]
activated state of ectopically expressed TPL2 (p-TPL2) (p-TPL2): dose-dependently deactivated | loss of sensitivity to growth inhibition on expression of MEK1-5DD (HEK T/tH-KRAS^G12V cells): approximately 3 fold | p-p105 levels (p-p105, p-p65): suppresses | AI growth in soft agar (KP2 cells): dose-dependently suppressed
